Results: publication PMC10221029, “Photoprotection and Antiaging Activity of Extracts from Honeybush (Cyclopia sp.)—In Vitro Wound Healing and Inhibition of the Skin Extracellular Matrix Enzymes: Tyrosinase, Collagenase, Elastase and Hyaluronidase” (Pharmaceutics, 2023)

Molecular target: T1, Collagenase from Clostridium histolyticum
T1 construct: gene colG; ColG / ColH not distinguished
Assay: spectrophotometric FALGPA hydrolysis, […] nm
Format: biochemical
Conditions: substrate FALGPA 0.8 mM; 50 mM tricine pH 7.5, 400 mM NaCl, 10 mM CaCl2; 15 min pre-incubation, room temperature

## CC1(C)CC[C@]2(C(=O)O)CC[C@]3(C)C(=CC[C@@H]4[C@@]5(C)CC[C@H](O)C(C)(C)[C@@H]5CC[C@]43C)[C@@H]2C1 [oleanolic acid]
  Standard Oleanolic Acid *: 25.66 ± 0.39 µg/mL
